Key:
Assay type in all cases: in vivo, nude/nude mice
GP2D cells = assay: GP2D colon cancer xenograft tumor volume; conditions: for Average Tumor Volumes: GP2D TGI-38 tumor bearing mice
Method: (§1) Immunocompromised nude/nude mice are inoculated in the right hind flank with cells harboring a KRas G12D mutation. When tumor volumes reach between 200-400 mm^3 in size, the mice are divided into four to five groups of 5 mice each. The first group is administered vehicle only. […] The fourth group is administered the single agent dose of the KRas G12D inhibitor using the twice daily for 2 sequential days followed by 5 days off schedule in combination with the single agent dose of the SHP-2 inhibitor. The treatment period varies from cell line to cell line but typically is between 15-28-days. Tumor volumes are measured using a caliper every two three days and tumor volumes are calculated by the formula: […].
(§2) 20 to 25 nude/nude mice per study were inoculated in the right hind limb with 5×10^6 LS180 cells, GP2D cells, Panc 02.03 cells, or AsPC-1 cells. When tumor volumes reached ˜200 mm^3-400 mm3 (study day 0) 5 mice in each of the groups were administered i.p. vehicle only (10% captisol in 50 mM citrate buffer pH 5.0), 30 mg/kg of Kras G12) inhibitor MRTX1133 (10% captisol in 50 mM citrate buffer, pH 5.0) either on the twice daily schedule or the twice daily for 2 consecutive days followed by 5 days off schedule, 10 mg/kg twice daily of the TNO-155 (0.5% methylcellulose and 0.1% Tween 80 in water) SHP2 inhibitor or 30 mg/kg once daily of the RMC-4550 (10% captisol in 50 mM citrate buffer pH 5.0) SHP2 inhibitor, or 30 mg/kg of Kras G12D inhibitor on either schedule and either TNO-155 or RMC-4550. Tumor volumes, measured at pre-specified days, for the five mice per group were averaged and are reported for LS180, GP2D, Panc 02.03, and AsPC-1 in Tables 2, 3, 4 and 5, respectively.
20 nude/nude mice were inoculated with GP2D cells in the right hind flank. When the tumors reached ˜300 mm^3 four treatment groups were established with five mice per group.

Panc 02.03 cells = assay: Panc 02.03 pancreatic cancer xenograft tumor volume; conditions: for Average Tumor Volumes: Panc 02.03 tumor bearing mice
Method: as §1, §2
Experimental Procedures. 25 nude/nude mice were inoculated with Panc 02.03 cells in the right hind flank. When the tumors reached ˜300 mm^3 four treatment groups were established with five mice per group.

AsPC-1 cells = assay: AsPC-1 pancreatic cancer xenograft tumor volume; conditions: for Average Tumor Volumes: AsPC-1 tumor bearing mice
Method: as §1, §2
Experimental Procedures. 20 nude/nude mice were inoculated with AsPC-1 cells in the right hind flank. When the tumors reached ˜200 mm^3 four treatment groups were established with five mice per group.

LS180 cells = assay: LS180 colon cancer xenograft tumor volume; conditions: for Average Tumor Volumes: LS180 tumor bearing mice, TNO155 10 mg/kg BID Daily
Method: as §1, §2
25 nude/nude mice were inoculated with LS180 cells in the right hind flank. When the tumors reached ˜250 mm^3 five treatment groups were established with five mice per group.

[1] = MRTX1133 30 mg/kg BID Daily, Study Day 1
[2] = TNO155 10 mg/kg BID Daily, Study Day 1

## C#Cc1c(F)ccc2cc(O)cc(-c3ncc4c(N5C[C@H]6CC[C@@H](C5)N6)nc(OC[C@@]56CCCN5C[C@H](F)C6)nc4c3F)c12 [MRTX1133, 4-(4-((1R,5S)-3,8-diazabicyclo[3.2.1]octan-3-yl)-8-fluoro-2-(((2R,7aS)-2-fluorohexahydro-1H-pyrrolizin-7a-yl)methoxy)pyrido[4,3-d]pyrimidin-7-yl)-5-ethynyl-6-fluoronaphthalen-2-ol]
GP2D cells; MRTX1133 30 mg/kg BID Daily, Study Day 31
  Average Tumor Volumes: 333.196 mm^3
Panc 02.03 cells; Panc 02.03, MRTX1133 30 mg/kg BID, daily administration, single agent, Day 22
  tumor regression: −33%
Panc 02.03 cells; [1]
  Average Tumor Volumes: 329.056 mm^3
Panc 02.03 cells; MRTX1133 30 mg/kg BID Daily, Study Day 4
  Average Tumor Volumes: 282.836 mm^3
Panc 02.03 cells; MRTX1133 30 mg/kg BID Daily, Study Day 8
  Average Tumor Volumes: 208.15 mm^3
Panc 02.03 cells; MRTX1133 30 mg/kg BID Daily, Study Day 11
  Average Tumor Volumes: 189.782 mm^3
Panc 02.03 cells; MRTX1133 30 mg/kg BID Daily, Study Day 15
  Average Tumor Volumes: 205.992 mm^3
Panc 02.03 cells; MRTX1133 30 mg/kg BID Daily, Study Day 18
  Average Tumor Volumes: 227.806 mm^3
Panc 02.03 cells; MRTX1133 30 mg/kg BID Daily, Study Day 22
  Average Tumor Volumes: 220.912 mm^3
AsPC-1 cells; AsPC-1, MRTX1133 30 mg/kg BID daily, single agent, Day 23
  tumor regression: −28%
AsPC-1 cells; [1]
  Average Tumor Volumes: 193.378 mm^3
AsPC-1 cells; MRTX1133 30 mg/kg BID Daily, Study Day 6
  Average Tumor Volumes: 168.124 mm^3
AsPC-1 cells; MRTX1133 30 mg/kg BID Daily, Study Day 9
  Average Tumor Volumes: 146.75 mm^3
AsPC-1 cells; MRTX1133 30 mg/kg BID Daily, Study Day 13
  Average Tumor Volumes: 143.612 mm^3
AsPC-1 cells; MRTX1133 30 mg/kg BID Daily, Study Day 16
  Average Tumor Volumes: 120.916 mm^3
AsPC-1 cells; MRTX1133 30 mg/kg BID Daily, Study Day 20
  Average Tumor Volumes: 119.264 mm^3
AsPC-1 cells; MRTX1133 30 mg/kg BID Daily, Study Day 23
  Average Tumor Volumes: 139.296 mm^3

## Cc1nc(N2CCC3(CC2)CO[C@@H](C)[C@H]3N)c(CO)nc1-c1cccc(Cl)c1Cl [RMC-4550, (3-((3S,4S)-4-amino-3-methyl-2-oxa-8-azaspiro[4.5]decan-8-yl)-6-(2,3-dichlorophenyl)-5-methylpyrazin-2-yl)methanol]
GP2D cells; RMC-4550 30 mg/kg Once Daily, Study Day 1
  Average Tumor Volumes: 300.014 mm^3
GP2D cells; RMC-4550 30 mg/kg Once Daily, Study Day 7
  Average Tumor Volumes: 353.148 mm^3
GP2D cells; RMC-4550 30 mg/kg Once Daily, Study Day 10
  Average Tumor Volumes: 398.576 mm^3
GP2D cells; RMC-4550 30 mg/kg Once Daily, Study Day 14
  Average Tumor Volumes: 497.714 mm^3
GP2D cells; RMC-4550 30 mg/kg Once Daily, Study Day 17
  Average Tumor Volumes: 530.072 mm^3
GP2D cells; RMC-4550 30 mg/kg Once Daily, Study Day 21
  Average Tumor Volumes: 567.882 mm^3
GP2D cells; RMC-4550 30 mg/kg Once Daily, Study Day 26
  Average Tumor Volumes: 685.836 mm^3
GP2D cells; RMC-4550 30 mg/kg Once Daily, Study Day 28
  Average Tumor Volumes: 807.148 mm^3
GP2D cells; RMC-4550 30 mg/kg Once Daily, Study Day 31
  Average Tumor Volumes: 970.626 mm^3
GP2D cells; RMC-4550 30 mg/kg Once Daily, Study Day 35
  Average Tumor Volumes: 1027.032 mm^3
GP2D cells; GP2D, RMC-4550 30 mg/kg QD, single agent, Day 35
  tumor growth inhibition: 56%

## C[C@@H]1OCC2(CCN(c3cnc(Sc4ccnc(N)c4Cl)c(N)n3)CC2)[C@@H]1N [TNO155]
Panc 02.03 cells; Panc 02.03, TNO155 10 mg/kg BID daily, single agent, Day 22
  tumor growth inhibition: 58%
Panc 02.03 cells; [2]
  Average Tumor Volumes: 330.644 mm^3
Panc 02.03 cells; TNO155 10 mg/kg BID Daily, Study Day 4
  Average Tumor Volumes: 365.57 mm^3
Panc 02.03 cells; TNO155 10 mg/kg BID Daily, Study Day 8
  Average Tumor Volumes: 469.4 mm^3
Panc 02.03 cells; TNO155 10 mg/kg BID Daily, Study Day 11
  Average Tumor Volumes: 522.856 mm^3
Panc 02.03 cells; TNO155 10 mg/kg BID Daily, Study Day 15
  Average Tumor Volumes: 571.16 mm^3
Panc 02.03 cells; TNO155 10 mg/kg BID Daily, Study Day 18
  Average Tumor Volumes: 622.47 mm^3
Panc 02.03 cells; TNO155 10 mg/kg BID Daily, Study Day 22
  Average Tumor Volumes: 657.502 mm^3
LS180 cells; LS180, TNO155 10 mg/kg BID daily, single agent, Day 15
  tumor growth inhibition: 48%
LS180 cells; Study Day 1
  Average Tumor Volumes: 272.732 mm^3
LS180 cells; Study Day 4
  Average Tumor Volumes: 568.234 mm^3
LS180 cells; Study Day 8
  Average Tumor Volumes: 888.474 mm^3
LS180 cells; Study Day 11
  Average Tumor Volumes: 1009.462 mm^3
LS180 cells; Study Day 15
  Average Tumor Volumes: 1155.8525 mm^3
AsPC-1 cells; AsPC-1, TNO155 10 mg/kg BID daily, single agent, Day 23
  tumor growth inhibition: 0%
AsPC-1 cells; [2]
  Average Tumor Volumes: 192.408 mm^3
AsPC-1 cells; TNO155 10 mg/kg BID Daily, Study Day 6
  Average Tumor Volumes: 262.654 mm^3
AsPC-1 cells; TNO155 10 mg/kg BID Daily, Study Day 9
  Average Tumor Volumes: 263.966 mm^3
AsPC-1 cells; TNO155 10 mg/kg BID Daily, Study Day 13
  Average Tumor Volumes: 301.71 mm^3
AsPC-1 cells; TNO155 10 mg/kg BID Daily, Study Day 16
  Average Tumor Volumes: 317.812 mm^3
AsPC-1 cells; TNO155 10 mg/kg BID Daily, Study Day 20
  Average Tumor Volumes: 360.412 mm^3
AsPC-1 cells; TNO155 10 mg/kg BID Daily, Study Day 23
  Average Tumor Volumes: 456.218 mm^3

— patent US20240423984A1, “COMBINATION THERAPIES OF KRAS G12D INHIBITORS WITH SHP-2 INHIBITORS” (MIRATI THERAPEUTICS, INC., priority 2021, published 2024)
